{"source": "patent US9302999B2", "about": "“Substituted triazoles as herbicides” (E. I. DU PONT DE NEMOURS AND COMPANY, priority 2012, dated 2016)", "type_in_all_cases": "in vivo", "key": {"[1]": {"system": "ducksalad (Heteranthera limosa)", "assay": "Test C flooded paddy test: ducksalad", "details": "scale 0 to 100 (0 no effect, 100 complete control)", "summary_of_the_method": "(§1)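 2-leaf stage plants; pots flooded 3 cm above soil; compound applied into paddy water, depth maintained. Greenhouse 13–15 d. Visual rating vs controls, 0–100 (0 = no effect, 100 = complete control); dash = no result.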"}, "[2]": {"system": "barnyardgrass (Echinochloa crus-galli)", "assay": "Test C flooded paddy test: barnyardgrass", "details": "scale 0 to 100 (0 no effect, 100 complete control)", "summary_of_the_method": "as §1"}, "[3]": {"system": "morningglory (Ipomoea spp.)", "assay": "Test A pre-/postemergence: morningglory", "details": "for Morningglory plant response rating: Postemergence; for Plant response rating, Morningglory: Preemergence", "summary_of_the_method": "(§2)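 Soil medium was loam blended with sand; treatments pre- and postemergence were applied concurrently, postemergence at one- to two-leaf stage. Approximately ten days in greenhouse preceded visual comparison with untreated controls, scored 0 (no effect) to 100 (complete control).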"}, "[4]": {"system": "foxtail, giant (giant foxtail, Setaria faberii)", "assay": "Test A pre-/postemergence: foxtail, giant", "details": "for Foxtail, Giant plant response rating: Postemergence; for Plant response rating, Foxtail, Giant: Preemergence", "summary_of_the_method": "as §2"}, "[5]": {"system": "sedge, umbrella (small-flower umbrella sedge, Cyperus difformis)", "assay": "Test C flooded paddy test: sedge, umbrella", "details": "scale 0 to 100 (0 no effect, 100 complete control)", "summary_of_the_method": "as §1"}, "[6]": {"system": "velvetleaf (Abutilon theophrasti)", "assay": "Test A pre-/postemergence: velvetleaf", "details": "for Velvetleaf plant response rating: Postemergence; for Plant response rating, Velvetleaf: Preemergence", "summary_of_the_method": "as §2"}, "[7]": {"system": "wheat (Triticum aestivum)", "assay": "Test A pre-/postemergence: wheat", "details": "for Wheat plant response rating: Postemergence; for Plant response rating, Wheat: Preemergence", "summary_of_the_method": "as §2"}, "rice (Oryza sativa)": {"system": "rice (Oryza sativa)", "assay": "Test C flooded paddy test: rice", "details": "scale 0 to 100 (0 no effect, 100 complete control)", "summary_of_the_method": "as §1"}, "[8]": {"system": "crabgrass, large (large crabgrass, Digitaria sanguinalis)", "assay": "Test A pre-/postemergence: crabgrass, large", "details": "for Crabgrass, Large plant response rating: Postemergence; for Plant response rating, Crabgrass, Large: Preemergence", "summary_of_the_method": "as §2"}, "[9]": {"system": "barnyardgrass (Echinochloa crus-galli)", "assay": "Test A pre-/postemergence: barnyardgrass", "details": "for Barnyardgrass plant response rating: Postemergence; for Plant response rating, Barnyardgrass: Preemergence", "summary_of_the_method": "as §2"}, "corn (Zea mays)": {"system": "corn (Zea mays)", "assay": "Test A pre-/postemergence: corn", "details": "for Corn plant response rating: Postemergence; for Plant response rating, Corn: Preemergence", "summary_of_the_method": "as §2"}, "[10]": {"system": "pigweed (Amaranthus retroflexus)", "assay": "Test A pre-/postemergence: pigweed", "details": "for Pigweed plant response rating: Postemergence; for Plant response rating, Pigweed: Preemergence", "summary_of_the_method": "as §2"}, "[11]": {"details": "Flood (flooded paddy test), 125 g ai/ha, visual rating after 13 to 15 days"}, "[12]": {"details": "Flood (flooded paddy test), 250 g ai/ha, visual rating after 13 to 15 days"}, "[13]": {"details": "125 g ai/ha, 0 to 100 scale, 0 is no effect, 100 is complete control"}, "[14]": {"details": "500 g ai/ha, visual rating on 0 to 100 scale (0 no effect, 100 complete control), approximately ten days"}, "[15]": {"details": "125 g ai/ha, 0 to 100 scale where 0 is no effect and 100 is complete control"}, "[16]": {"details": "500 g ai/ha, 0 to 100 scale (0 no effect, 100 complete control)"}}}
{"smiles": "Cc1nn(-c2ccc(C(F)(F)F)cc2)nc1Oc1cccc(OC(F)(F)F)c1", "note": "[Compound 119]", "values": [{"measurement": "Plant response rating, Ducksalad", "setting": "[1]; [11]", "result": 80}, {"measurement": "Plant response rating, Ducksalad", "setting": "[1]; [12]", "result": 80}, {"measurement": "Plant response rating, Ducksalad", "setting": "[1]; Flood, 62 g ai/ha", "result": 50}, {"measurement": "Plant response rating, Barnyardgrass", "setting": "[2]; [11]", "result": 25}, {"measurement": "Plant response rating, Barnyardgrass", "setting": "[2]; [12]", "result": 30}, {"measurement": "Plant response rating, Barnyardgrass", "setting": "[2]; Flood, 62 g ai/ha", "result": 20}, {"measurement": "Morningglory plant response rating", "setting": "[3]; [13]", "result": 20}, {"measurement": "Morningglory plant response rating", "setting": "[3]; [14]", "result": 70}, {"measurement": "Plant response rating, Morningglory", "setting": "[3]; [15]", "result": 0}, {"measurement": "Plant response rating, Morningglory", "setting": "[3]; [16]", "result": 10}, {"measurement": "Foxtail, Giant plant response rating", "setting": "[4]; [13]", "result": 20}, {"measurement": "Foxtail, Giant plant response rating", "setting": "[4]; [14]", "result": 60}, {"measurement": "Plant response rating, Foxtail, Giant", "setting": "[4]; [15]", "result": 50}, {"measurement": "Plant response rating, Foxtail, Giant", "setting": "[4]; [16]", "result": 100}, {"measurement": "Plant response rating, Sedge, Umbrella", "setting": "[5]; [11]", "result": 85}, {"measurement": "Plant response rating, Sedge, Umbrella", "setting": "[5]; [12]", "result": 85}, {"measurement": "Plant response rating, Sedge, Umbrella", "setting": "[5]; Flood, 62 g ai/ha", "result": 75}, {"measurement": "Velvetleaf plant response rating", "setting": "[6]; [13]", "result": 20}, {"measurement": "Velvetleaf plant response rating", "setting": "[6]; [14]", "result": 40}, {"measurement": "Plant response rating, Velvetleaf", "setting": "[6]; [15]", "result": 0}, {"measurement": "Plant response rating, Velvetleaf", "setting": "[6]; [16]", "result": 10}, {"measurement": "Wheat plant response rating", "setting": "[7]; [13]", "result": 0}, {"measurement": "Wheat plant response rating", "setting": "[7]; [14]", "result": 10}, {"measurement": "Plant response rating, Wheat", "setting": "[7]; [15]", "result": 0}, {"measurement": "Plant response rating, Wheat", "setting": "[7]; [16]", "result": 0}, {"measurement": "Plant response rating, Rice", "setting": "rice (Oryza sativa); [11]", "result": 25}, {"measurement": "Plant response rating, Rice", "setting": "rice (Oryza sativa); [12]", "result": 25}, {"measurement": "Plant response rating, Rice", "setting": "rice (Oryza sativa); Flood, 62 g ai/ha", "result": 15}, {"measurement": "Crabgrass, Large plant response rating", "setting": "[8]; [13]", "result": 40}, {"measurement": "Crabgrass, Large plant response rating", "setting": "[8]; [14]", "result": 70}, {"measurement": "Plant response rating, Crabgrass, Large", "setting": "[8]; [15]", "result": 70}, {"measurement": "Plant response rating, Crabgrass, Large", "setting": "[8]; [16]", "result": 100}, {"measurement": "Barnyardgrass plant response rating", "setting": "[9]; [13]", "result": 10}, {"measurement": "Barnyardgrass plant response rating", "setting": "[9]; [14]", "result": 20}, {"measurement": "Plant response rating, Barnyardgrass", "setting": "[9]; [15]", "result": 0}, {"measurement": "Plant response rating, Barnyardgrass", "setting": "[9]; [16]", "result": 30}, {"measurement": "Corn plant response rating", "setting": "corn (Zea mays); [13]", "result": 10}, {"measurement": "Corn plant response rating", "setting": "corn (Zea mays); [14]", "result": 30}, {"measurement": "Plant response rating, Corn", "setting": "corn (Zea mays); [15]", "result": 0}, {"measurement": "Plant response rating, Corn", "setting": "corn (Zea mays); [16]", "result": 0}, {"measurement": "Pigweed plant response rating", "setting": "[10]; [13]", "result": 70}, {"measurement": "Pigweed plant response rating", "setting": "[10]; [14]", "result": 100}, {"measurement": "Plant response rating, Pigweed", "setting": "[10]; [15]", "result": 60}, {"measurement": "Plant response rating, Pigweed", "setting": "[10]; [16]", "result": 100}]}
